Legend:
miR-29a = experiment: qRT-PCR of miR-29 expression level in H9c2 cells; format: cell-based, rat
Protocol: (§1) The cardiac muscle cell H9c2 was maintained in complete growth medium, supplemented with 10% FBS, penicillin G (100 IU/ml). Cells were incubated at 37° C. in a humidified atmosphere (5% CO2/95% air). Passages 5-9 were used for all experiments. Exponentially growing H9c2 cells were seeded at 1×10^5 per 100 mm plate and incubated until 60-70% confluent. Cells were treated with: 1) vehicle alone (2% ethanol); 2) 10 nM PIO; 3) 1 μM GW9662; 4) 10 nM PIO+1 μM GW9662. PIO was dissolved in 70% ethanol. 24 hours later, cells were harvested and total RNA enriched with small RNAs was isolated using mirVana miRNA Isolation Kit (Ambion). MiR-29 levels were measured using the mirVana qRT-PCR miRNA Detection Kit (Ambion). Reactions containing mirVana qRT-PCR Primer Sets were specific for rat miR-29. The appropriate cycle threshold (Ct) was determined by using the automatic baseline determination feature. The expression of miR-29 between RNA samples was calculated. Data were normalized by evaluating U6 expression.

miR-29c = experiment: qRT-PCR of miR-29 expression level in H9c2 cells; format: cell-based, rat
Protocol: as §1

[1] = 10 nM PIO + 1 μM GW9662, 24 hours
[2] = single agent, 24 hours, 10 nM PIO or 1 μM GW9662, vs vehicle control

## O=C(Nc1ccccc1)c1cc([N+](=O)[O-])ccc1Cl [GW9662]
miR-29a; [1]
  effect of PIO on miR-29a level in H9c2 cells (qRT-PCR): block the effect of PIO
miR-29a; [2]
  miR-29a level in H9c2 cells (qRT-PCR): no effect
miR-29c; [1]
  effect of PIO on miR-29c level in H9c2 cells (qRT-PCR): block the effect of PIO
miR-29c; [2]
  miR-29c level in H9c2 cells (qRT-PCR): no effect

Reference: patent publication US20100292278A1, “Methods of treating vascular disease and injury” (priority 2009, published 2010)
